For one assay, the target named is JAK2 (Homo sapiens (Human), UniProt O60674). Put plainly: Purified kinase assay (Z'-LYTE), JAK2. Type of assay: biochemical. The procedure, abridged:
(§1)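 Catalytic-domain recombinant kinase with Tyr6 peptide (a separate Tyr6 kit for TYK2) and ATP, 1% DMSO final, reacted 1 h at room temperature. Z′-LYTE FRET read after 1 h protease development (ex 400, em 445/520 nm). Inhibition computed from percent substrate phosphorylation versus no inhibitor; IC50 from 4-parameter logistic fit.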

The next assay deals with TYK2 (Homo sapiens (Human), UniProt P29597). Put plainly: Purified kinase assay (Z'-LYTE), TYK2. The assay is classed as biochemical. Here is the method: JAK and TYK2 tyrosine phosphorylation activity is measured using the Z′-LYTE™ Technology developed by Invitrogen Corporation (Carlsbad, Calif.). For JAK1, JAK2 and JAK3 the Z′-LYTE™ Kinase Assay Kit-Tyr6 Peptide (part number PV4122) was used. For TYK2 the Z′-LYTE™ Kinase Assay Kit-Tyr6 Peptide (part number PV3192) was used. The Z′-LYTE™ biochemical assay employs a fluorescence resonance energy transfer (FRET) coupled-enzyme format and is based on the differential sensitivity of phosphorylated and non-phosphorylated peptides to proteolytic cleavage. The assay uses a synthetic peptide substrate that is labeled with a donor fluorophore (coumarin) and an acceptor fluorophore (fluorescein) that make up a FRET pair. In the primary reaction (the Kinase Reaction), the kinase transfers the γ-phosphate of ATP to a single tyrosine residue on the substrate, while the presence of a kinase inhibitor in the primary reaction suppresses phosphorylation. In the secondary reaction (the Development Reaction), a site-specific protease (the Development Reagent) is added. The development buffer quenches the Kinase Reaction, while the protease recognizes and cleaves non-phosphorylated Z′-LYTE™ peptide substrate. Cleavage disrupts FRET between the donor and acceptor fluorophores on the non-phosphorylated substrate, while uncleaved, phosphorylated substrate maintains FRET.
To test the ability of candidate molecules to inhibit JAK tyrosine phosphorylation activity, molecules are reconstituted in 100% DMSO and serially diluted 1:10 in polypropylene v-bottom microtiter plates. The candidate molecules are then diluted 1:25 into kinase buffer and 2.5 μl transferred into duplicate wells of a 384 well low volume black microtiter assay plate (Corning, USA). The final DMSO concentration in the assay is 1%. The kinase reaction contains 2.5 μl of a candidate molecule, 5 μl of catalytic domain recombinant Kinase enzyme+Tyr peptide substrate (Invitrogen, CA) and ATP (Invitrogen, CA). The kinase reaction is allowed to proceed for 1 hour at room temperature. The protease reaction is initiated by the addition of Development Reagent (Invitrogen, CA). After 1 hour incubation at room temperature the fluorescence is measured using a FlexStation plate reader (Molecular Devices, Sunnyvale, Calif.). The reader settings used are as follows: Fluorescence mode, endpoint, top read, excitation 400 nm, emission 445 nm and 520 nm, Auto Cutoff 435 nm and 515 nm, PMT sensitivity high, 6 reads per well Inhibition of JAK activity is calculated as the percent phosphorylation of substrate in the presence of inhibitor compared to the percent phosphorylation of substrate in the absence of inhibitor. IC50's were derived using Xlfit 4.3 (IDBS, UK), 4 parameter logistic model 205: Y=(A+((B−A)/(1+((C/x)^D)))).

The next assay deals with JAK1 (Homo sapiens (Human), UniProt P23458). Put plainly: Purified kinase assay (Z'-LYTE), JAK1. Type of assay: biochemical. An outline of the steps:
as §1

Assay [1] concerns JAK2 (GM-CSF-induced pSTAT5 in TF1 cells). Kind of assay: GMCSF-induced pSTAT5 formation in TF1 (JAK2 cellular assay). Type of assay: cell-based. Conditions: Homo sapiens, TF-1, read-out: TF1/GM-CSF percent inhibition of STAT phosphorylation. How it is done: 100 μl aliquots of TFI (2.5×10^6/ml) cells were pre-treated with various concentrations JAK inhibitors (0.04 to 5 μM, including 0.2 μM and 1 μM) for 1 hour at 37° C. Cells were then stimulated with 2 ng/ml GM-CSF for 10 minutes at 37° C. The reaction was terminated by the addition of 60 μl 16% paraformaldehyde followed by incubation for 10 minutes at room temperature. Cells were washed twice (centrifugation 5 minutes room temperature at 385×g) in PBS followed by re-suspension in −20° C. 50% methanol in PBS and storage at 4° C. overnight. The following day, cells were washed in PBS/BSA and re-suspended in the same buffer containing STAT5 Y694 specific antibody. Following incubation with antibodies, cells were washed and analyzed by flow cytometry (BD Biosciences; FACS Calibur). The gate was set on live cells in the SSC-FSC plot and 10,000 events were collected.
(§2) Percent inhibition of STAT phosphorylation in the cellular assays is provided for the compounds at the given concentrations.

A further assay deals with JAK3 (Homo sapiens (Human), UniProt P52333). Kind of assay: Purified kinase assay (Z'-LYTE), JAK3. Type of assay: biochemical. An outline of the steps:
as §1

Assay [2] has as its system JAK3/JAK1 (IL2-STAT5 in PBMC). Put plainly: Intracellular STAT5 phosphorylation following IL2 stimulation of PBMC (JAK3/JAK1 cellular assay). The settings on record: Homo sapiens, read-out: IL2-STAT5 percent inhibition of STAT phosphorylation. The assay is classed as cell-based. Here is the method: Human whole blood was collected into lithium heparin vacutainer tubes from the antecubital vein of human subjects. Peripheral blood mononuclear cells (PBMC) were prepared by layering 10 ml anti-coagulated blood over 5 ml lymphoprep in a 15 ml conical tube and centrifugation for 20 minutes at 400×g in a swinging bucket rotor. The lymphocyte layer was removed, washed twice in tissue culture media (RPMI containing 10% fetal bovine serum) prior to re-suspension in the same media at 2×10^6 cells/ml. 100 μl aliquots of PMBCs were incubated for 1 h at 37° C. with various concentrations of JAK inhibitors prior to stimulation for 15 minutes with 1.5 ng/ml of IL2 or IL4. The reaction was terminated by the addition of 60 μl 16% paraformaldehyde, followed by incubation at room temperature for 10 minutes. Fixed cells were washed twice in PBS, and then re-suspended in −20° C. 50% methanol diluted in PBS and stored at 4° C. overnight. Following permeabilization of the cell membrane in methanol, cells were washed twice in PBS containing 1% BSA and PBMCs were re-suspended in the same buffer containing CD3 and STAT5 Y694 specific antibodies (IL2 stimulations) or CD3, CD14, CD19, and STAT6 Y641 specific antibodies (IL4 stimulations) for 1 hour at room temperature. Cells were then washed and re-suspended in PBS/BSA buffer and assessed by flow cytometry (LSRII; BD Biosciences) for effect of JAK inhibitors on cytokine mediated STAT phosphorylation.
as §2

Where two headings read alike, the source gives them in different places. Bounds are passed on as bounds.

JAK3, sequence (P52333 822-1111): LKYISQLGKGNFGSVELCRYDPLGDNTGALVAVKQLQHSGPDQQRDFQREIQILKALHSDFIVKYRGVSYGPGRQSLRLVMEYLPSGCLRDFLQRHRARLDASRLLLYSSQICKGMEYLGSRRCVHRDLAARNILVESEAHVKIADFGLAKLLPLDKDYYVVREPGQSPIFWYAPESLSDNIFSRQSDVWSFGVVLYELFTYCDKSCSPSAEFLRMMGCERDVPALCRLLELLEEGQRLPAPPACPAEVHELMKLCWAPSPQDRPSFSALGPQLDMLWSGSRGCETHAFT
JAK2, sequence (O60674 849-1124): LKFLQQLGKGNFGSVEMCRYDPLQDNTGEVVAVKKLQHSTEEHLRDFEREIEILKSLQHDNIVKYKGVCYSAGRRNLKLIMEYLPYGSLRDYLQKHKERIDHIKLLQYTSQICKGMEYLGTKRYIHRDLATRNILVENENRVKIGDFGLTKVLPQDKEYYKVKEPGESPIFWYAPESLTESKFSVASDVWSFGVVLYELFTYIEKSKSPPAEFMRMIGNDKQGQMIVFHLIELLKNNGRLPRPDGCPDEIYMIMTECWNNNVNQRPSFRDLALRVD
JAK1, sequence (P23458 875-1153): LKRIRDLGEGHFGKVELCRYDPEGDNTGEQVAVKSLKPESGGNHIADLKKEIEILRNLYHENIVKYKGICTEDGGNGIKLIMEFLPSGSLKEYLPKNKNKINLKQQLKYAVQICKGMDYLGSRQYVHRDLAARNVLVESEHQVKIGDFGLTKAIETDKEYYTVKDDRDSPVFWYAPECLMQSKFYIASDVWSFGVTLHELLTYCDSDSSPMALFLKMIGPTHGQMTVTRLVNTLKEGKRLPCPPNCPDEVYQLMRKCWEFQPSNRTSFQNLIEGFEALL
TYK2, sequence (P29597 897-1176): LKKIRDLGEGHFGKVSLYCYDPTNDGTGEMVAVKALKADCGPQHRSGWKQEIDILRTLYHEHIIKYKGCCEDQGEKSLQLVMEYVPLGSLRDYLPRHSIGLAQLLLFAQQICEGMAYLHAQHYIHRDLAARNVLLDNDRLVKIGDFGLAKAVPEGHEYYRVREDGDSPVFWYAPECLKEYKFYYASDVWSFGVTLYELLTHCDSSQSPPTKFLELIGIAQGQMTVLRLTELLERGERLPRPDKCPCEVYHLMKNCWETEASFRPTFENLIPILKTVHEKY

Regarding `CC(=O)N1CCN(c2ccc(Nc3cc(NCc4cc(F)cc(F)c4)c(C(N)=O)nn3)cc2)CC1` [Compound 20], the IC50 at JAK2 (Table 1, read-out: JAK2 IC50) is 10 to 100 nM; on JAK2 (Table 2, read-out: JAK2), 100 to 1000 nM; on TYK2 (Table 1, read-out: Tyk2 IC50), 100 to 1000 nM; on TYK2 (Table 2, read-out: TYK2) it was 100 to 1000 nM; on JAK1 (Table 1, read-out: JAK1 IC50), 100 to 1000 nM; on JAK1 (Table 2, read-out: JAK1), > 1000 nM. Further, the IC50 at JAK3 (Table 1, read-out: JAK3 IC50) is 1 to 10 nM; on JAK3 (Table 2, read-out: JAK3) it was 1 to 10 nM. Moreover, the inhibition at 0.1 µM in assay [1] was 3%. Besides, the inhibition at 1 µM in assay [1] was found to be 2%; in assay [2], 60%. Further, in assay [2], the inhibition at 0.2 µM came out at 32%.

Regarding `CCC(=O)N1CCN(c2ccc(Nc3cc(NCc4c(F)cccc4F)c(C(N)=O)nn3)cc2)CC1` [Compound 33], the IC50 on JAK2 (Table 1, read-out: JAK2 IC50) was in the range of 10 to 100 nM; at JAK2 (Table 2, read-out: JAK2), 10 to 100 nM; at TYK2 (Table 1, read-out: Tyk2 IC50) it was 10 to 100 nM; at TYK2 (Table 2, read-out: TYK2), 10 to 100 nM; on JAK1 (Table 1, read-out: JAK1 IC50), 100 to 1000 nM; at JAK1 (Table 2, read-out: JAK1), 100 to 1000 nM. Further, the IC50 on JAK3 (Table 1, read-out: JAK3 IC50) was in the range of 1 to 10 nM; at JAK3 (Table 2, read-out: JAK3), 1 to 10 nM. Moreover, the inhibition at 0.1 µM in assay [1] worked out at 0%. Besides, the values for the inhibition at 1 µM in assay [1] and in assay [2] were 17% and 53%, respectively. The inhibition at 0.2 µM in assay [2] was found to be 31%.

With `CC(=O)Nc1cccc(Nc2cc(NCc3cccc(F)c3)c(C(N)=O)nn2)c1` [Compound 65], the IC50 on JAK2 (Table 1, read-out: JAK2 IC50) is 100 to 1000 nM; at TYK2 (Table 1, read-out: Tyk2 IC50), 100 to 1000 nM; at JAK1 (Table 1, read-out: JAK1 IC50), > 1000 nM; on JAK3 (Table 1, read-out: JAK3 IC50), 10 to 100 nM.

For `Cn1cc(Nc2cc(NCc3cccc(F)c3)c(C(N)=O)nn2)cn1` [Compound 66], the IC50 was 100 to 1000 nM at JAK2 (Table 1, read-out: JAK2 IC50); > 1000 nM on TYK2 (Table 1, read-out: Tyk2 IC50); > 1000 nM on JAK1 (Table 1, read-out: JAK1 IC50); 10 to 100 nM at JAK3 (Table 1, read-out: JAK3 IC50).

With `CS(=O)(=O)Cc1ccc(Nc2cc(NCc3cccc(F)c3F)c(C(N)=O)nn2)cc1` [Compound 89], the IC50 was in the range of 100 to 1000 nM at JAK2 (Table 1, read-out: JAK2 IC50); 100 to 1000 nM at TYK2 (Table 1, read-out: Tyk2 IC50); 100 to 1000 nM on JAK1 (Table 1, read-out: JAK1 IC50); 1 to 10 nM at JAK3 (Table 1, read-out: JAK3 IC50).

In the case of `CC(=O)N1CCN(c2ccc(Nc3cc(NCc4cccc5ccsc45)c(C(N)=O)nn3)cc2)CC1` [Compound 98], the IC50 was 10 to 100 nM on JAK2 (Table 1, read-out: JAK2 IC50); 10 to 100 nM on JAK2 (Table 2, read-out: JAK2); > 1000 nM on TYK2 (Table 1, read-out: Tyk2 IC50); > 1000 nM at TYK2 (Table 2, read-out: TYK2); 100 to 1000 nM on JAK1 (Table 1, read-out: JAK1 IC50); > 1000 nM at JAK1 (Table 2, read-out: JAK1). The IC50 was 1 to 10 nM at JAK3 (Table 1, read-out: JAK3 IC50) and 1 to 10 nM at JAK3 (Table 2, read-out: JAK3). In addition, in assay [2], the inhibition at 0.2 µM turned out to be 13%. In addition, the inhibition at 1 µM in assay [2] amounted to 64%.

In the case of `NC(=O)c1nnc(Nc2ccc(N3CCNCC3)cc2)cc1NCc1cccc2ccsc12` [Compound 99], the IC50 lay within 10 to 100 nM at JAK2 (Table 1, read-out: JAK2 IC50); 100 to 1000 nM on TYK2 (Table 1, read-out: Tyk2 IC50); 100 to 1000 nM on JAK1 (Table 1, read-out: JAK1 IC50); 1 to 10 nM on JAK3 (Table 1, read-out: JAK3 IC50).

In the case of `CC(=O)N1CCN(c2ccc(Nc3cc(NCc4cccc5[nH]ccc45)c(C(N)=O)nn3)cc2)CC1` [Compound 109], the IC50 on JAK2 (Table 1, read-out: JAK2 IC50) is 10 to 100 nM; at JAK2 (Table 2, read-out: JAK2), 10 to 100 nM; on JAK1 (Table 1, read-out: JAK1 IC50) it was 10 to 100 nM; on JAK1 (Table 2, read-out: JAK1), 10 to 100 nM; on JAK3 (Table 1, read-out: JAK3 IC50), < 1 nM; on JAK3 (Table 2, read-out: JAK3) it was 1 to 10 nM. Besides, the inhibition at 0.2 µM in assay [2] was determined as 69%. Further, in assay [2], the inhibition at 1 µM came to 95%.

For the origin of these results see US9834548B2, “Pyridazine compounds as JAK inhibitors” (Portola Pharmaceuticals, Inc., priority 2014, dated 2017).
